The text below walks through data of patent US7504430B2, “Maleiimide anti-tumor phosphatase inhibitors” (The United States of America as represented by the …, priority 2004, dated 2009).

As usually defined, the pIC50 is the IC50 on a negative log10 scale, so that one unit is a factor of ten.

One series concerns Hep3B cells. The series can be described thus: Hep3B cell growth inhibition (Hoechst 33258 DNA fluorescence, 3 days of treatment). It is filed as cell-based, human. The conditions noted are these: for Potency at Hep3B cell growth inhibition compared with Cpd5: versus Cpd5 (2-(2-mercaptoethanol)-3-methyl-1,4-naphthoquinone); for Inhibition of Hep3B cell growth: even at 10 μM. The protocol: Hep3B or JM-1 hepatoma cells were grown in tissue culture in MEM medium supplemented with 10% fetal bovine serum. Cells were plated at a density of 1×104. […] Culture medium was replaced every day with new medium containing the inhibitor. After 3 days of treatment, the cells were rinsed once with PBS and frozen at −80° C. until counting. Frozen cells were thawed and incubated with the DNA-staining dye Hoescht 33258. The cell numbers were determined by measuring the dye-bound DNA fluorescence by a fluorescent plate reader.
(§1) IC50 was determined from the growth inhibition curves.

The conditions of series [1]: orally in mice; cited from earlier work.
The test system of the next series is SKBR3. As to the kind of experiment: Tumor cell line growth inhibition, SKBR3. The format is cell-based. The conditions noted are these: Homo sapiens, SK-BR-3, 72 h; Breast, SKBR3, cultured for 3 days; maximum concentration 20 μmol/L. The protocol:
as §1

In another series the test system is PCI. The series can be described thus: Tumor cell line growth inhibition, PCI. Particulars: Homo sapiens, 72 h, Tongue, cultured for 3 days, maximum concentration 20 μmol/L. The format is cell-based. On the procedure:
as §1

Another series deals with HR. The series can be described thus: Tumor cell line growth inhibition, HR. It is filed as cell-based. Particulars: Homo sapiens, 72 h, Stomach, cultured for 3 days, maximum concentration 20 μmol/L. On the procedure:
as §1

The test system of another series is LS180. As to the kind of experiment: Tumor cell line growth inhibition, LS180. The conditions noted are these: Homo sapiens, 72 h; Colon, LS180, cultured for 3 days; maximum concentration 20 μmol/L. It is filed as cell-based. The protocol:
as §1

A further series has as its target T1, PYP1B (Homo sapiens, UniProt P18031).
T1 sequence (P18031 1-435): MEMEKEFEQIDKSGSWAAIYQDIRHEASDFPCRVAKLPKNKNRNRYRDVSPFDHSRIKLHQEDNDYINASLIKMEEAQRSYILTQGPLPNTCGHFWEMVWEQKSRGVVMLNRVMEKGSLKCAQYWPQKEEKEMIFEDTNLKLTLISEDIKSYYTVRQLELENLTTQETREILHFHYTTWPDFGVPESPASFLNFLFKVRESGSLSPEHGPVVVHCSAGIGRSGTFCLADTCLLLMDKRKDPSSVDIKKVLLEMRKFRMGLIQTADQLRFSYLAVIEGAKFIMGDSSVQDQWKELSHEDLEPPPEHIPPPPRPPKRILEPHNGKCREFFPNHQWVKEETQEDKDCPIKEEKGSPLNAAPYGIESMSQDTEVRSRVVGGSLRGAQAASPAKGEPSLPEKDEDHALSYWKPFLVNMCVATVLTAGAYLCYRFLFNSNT
The series can be described thus: Phosphatase inhibition, PYP1B. It is filed as biochemical.

A further series concerns cell cycle. As to the kind of experiment: Cell cycle analysis. The conditions noted are these: with upregulation of tyrosine phosphorylation of Cdk1, 2 and 4. The format is cell-based.
The next series deals with MCF7. As to the kind of experiment: Tumor cell line growth inhibition, MCF7. The format is cell-based. The conditions noted are these: Homo sapiens, 72 h; Breast, MCF7, cultured for 3 days; maximum concentration 20 μmol/L. On the procedure:
as §1

The target in another series is T2, CD45 (Homo sapiens, UniProt P08575).
T2 sequence (P08575 26-1306): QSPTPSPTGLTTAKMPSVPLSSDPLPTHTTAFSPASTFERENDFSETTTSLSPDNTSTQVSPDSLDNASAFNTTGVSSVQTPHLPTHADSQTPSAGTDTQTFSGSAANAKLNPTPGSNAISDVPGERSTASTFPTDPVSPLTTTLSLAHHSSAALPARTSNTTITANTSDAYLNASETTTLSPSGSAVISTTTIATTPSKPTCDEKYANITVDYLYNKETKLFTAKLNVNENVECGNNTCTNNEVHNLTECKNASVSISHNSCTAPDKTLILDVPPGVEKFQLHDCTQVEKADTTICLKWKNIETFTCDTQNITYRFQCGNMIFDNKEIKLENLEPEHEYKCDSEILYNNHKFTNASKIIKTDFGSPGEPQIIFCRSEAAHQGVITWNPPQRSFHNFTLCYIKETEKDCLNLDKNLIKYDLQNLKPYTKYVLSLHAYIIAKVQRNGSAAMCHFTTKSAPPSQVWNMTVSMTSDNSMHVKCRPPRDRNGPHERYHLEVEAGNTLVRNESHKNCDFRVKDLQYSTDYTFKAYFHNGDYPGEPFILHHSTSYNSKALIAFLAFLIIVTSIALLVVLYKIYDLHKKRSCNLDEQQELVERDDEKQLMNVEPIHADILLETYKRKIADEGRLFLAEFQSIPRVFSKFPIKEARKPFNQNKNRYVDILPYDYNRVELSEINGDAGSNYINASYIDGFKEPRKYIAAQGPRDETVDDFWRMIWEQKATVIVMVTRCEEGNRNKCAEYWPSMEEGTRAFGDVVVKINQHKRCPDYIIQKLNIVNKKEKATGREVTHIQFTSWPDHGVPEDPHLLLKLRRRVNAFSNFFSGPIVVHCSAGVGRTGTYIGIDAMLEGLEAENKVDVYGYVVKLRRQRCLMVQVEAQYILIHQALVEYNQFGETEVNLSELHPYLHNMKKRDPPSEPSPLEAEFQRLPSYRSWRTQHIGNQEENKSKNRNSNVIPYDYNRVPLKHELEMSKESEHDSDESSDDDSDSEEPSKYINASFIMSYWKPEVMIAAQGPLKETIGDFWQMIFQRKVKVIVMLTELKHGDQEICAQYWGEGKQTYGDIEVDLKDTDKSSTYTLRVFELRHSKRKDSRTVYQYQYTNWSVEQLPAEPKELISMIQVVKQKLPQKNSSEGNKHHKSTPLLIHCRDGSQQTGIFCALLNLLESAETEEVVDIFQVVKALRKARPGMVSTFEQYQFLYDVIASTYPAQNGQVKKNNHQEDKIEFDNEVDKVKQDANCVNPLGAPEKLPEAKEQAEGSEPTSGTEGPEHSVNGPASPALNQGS
The series can be described thus: Phosphatase inhibition, CD45. The format is biochemical.

The target of a further series is T3, MKP1 (Homo sapiens, UniProt P28562).
T3 sequence (P28562 1-367): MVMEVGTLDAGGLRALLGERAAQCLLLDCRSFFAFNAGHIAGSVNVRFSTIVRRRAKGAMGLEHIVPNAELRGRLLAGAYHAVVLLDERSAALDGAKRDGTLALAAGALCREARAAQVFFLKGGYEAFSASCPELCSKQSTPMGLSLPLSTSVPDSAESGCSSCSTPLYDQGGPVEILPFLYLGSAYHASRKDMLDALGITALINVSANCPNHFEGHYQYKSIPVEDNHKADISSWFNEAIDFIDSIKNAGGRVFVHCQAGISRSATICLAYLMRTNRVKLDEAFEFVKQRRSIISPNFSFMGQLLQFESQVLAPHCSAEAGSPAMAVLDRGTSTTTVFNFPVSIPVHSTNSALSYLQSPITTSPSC
The series can be described thus: Phosphatase inhibition, MKP1. It is filed as biochemical.

In series [2] the target is T4, catalytic domain of Cdc25B (Homo sapiens, UniProt P30305).
T4 sequence (P30305 431-538 limits assumed): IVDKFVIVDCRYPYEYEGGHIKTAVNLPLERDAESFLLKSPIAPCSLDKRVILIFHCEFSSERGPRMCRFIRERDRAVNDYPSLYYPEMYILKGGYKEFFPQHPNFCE
The series can be described thus: Binding to the catalytic domain of Cdc25B.

In the next series the test system is FemX. The series can be described thus: Tumor cell line growth inhibition, FemX. The format is cell-based. The conditions noted are these: Homo sapiens, Fem-X, 72 h, Skin, cultured for 3 days, maximum concentration 20 μmol/L. On the procedure: as §1
Series [3] has as its system primary cultures of normal hepatocytes. The series can be described thus: DNA synthesis in primary cultures of normal hepatocytes versus Hep3B hepatoma cells. It is filed as cell-based.
A further series has as its system EGFR and ERK1/2. The series can be described thus: Tyrosine phosphorylation of EGFR and ERK1/2. The format is cell-based.
For the next series, the system named is JM-1 rat hepatoma cells. The series can be described thus: Orthotopic rat tumor model, JM-1 hepatoma cells seeded into livers of F344 rats. The format is in vivo. Particulars: 1 mg/kg intraperitoneal, every other day, 5 injections, control rats averaged 11 tumors per liver. On the procedure:
JM-1 rat hepatoma cells were seeded into livers of F344 rats. […] The control rats had on the average 11 tumors per liver, whereas the PM-20-treated rats had 2 tumors per rat.

[4] abbreviates: Homo sapiens, 72 h, Hep3B cells, 3 days of treatment, read-out: IC50, Hep3B cell growth inhibition.
Where [5] appears, read: Homo sapiens, 72 h, Liver, Hep3B, cultured for 3 days, maximum concentration 20 μmol/L, read-out: IC50.

pIC50: −log10 of the molar value. Read-outs that look alike come from different tables or passages of the source.

Regarding `O=C1C(SCCO)=C(SCCO)C(=O)N1c1ccc2ccccc2c1` [PM-34, 3,4-Bis-(2-hydroxy-ethylsulfanyl)-1-naphthalen-2-yl-maleimide], the “Potency at Hep3B cell growth inhibition compared with Cpd5” value in the series on Hep3B cells is “more potent inhibitors than Cpd5”.
Consider `O=C1C(SCCO)=C(SCCO)C(=O)N1c1ccc(-c2ccc([N+](=O)[O-])cc2)cc1` [PM-42, 1-(4′-nitro-biphenyl-4-yl)-3,4-bis-(2-hydroxy-ethylsulfanyl)-pyrrole-2,5-dione], for which the pIC50 in the series on Hep3B cells (setting [4]) is ~7.00.
Take `CCCOc1ccc(N2C(=O)C(SCCO)=C(SCCO)C2=O)cc1` [PM-30, 3,4-Bis-(2-hydroxy-ethylsulfanyl)-1-(4-propoxyphenyl)-pyrrole-2,5-dione]: in the series with Hep3B cells, the “Potency at Hep3B cell growth inhibition compared with Cpd5” value is recorded as “more potent inhibitors than Cpd5”.
`CC1=CC(=O)c2ccccc2C1=O` [Vitamin K3]: the LC50 in series [1] is reported as 0.5 g/kg.
For `N#CC(=C(/N)Sc1ccccc1N)/C(C#N)=C(\N)Sc1ccccc1N` [U0126, reference compound], the “Effect on the growth inhibitory effect of PM-20” value with Hep3B cells (MEK1/2 inhibitor given with PM-20, inhibition of ERK1/2 phosphorylation) is given as “antagonized the growth inhibitory effect of PM-20”.
`O=C1C(SCCO)=C(SCCO)C(=O)N1c1ccc(OCc2ccccc2)cc1` [PM-38, 1-(4-Benzyloxy-phenyl)-3,4-bis-(2-hydroxy-ethylsulfanyl)-pyrrole-2,5-dione]: the “Inhibition of Hep3B cell growth” value in the series with Hep3B cells is given as “did not inhibit”.
In the case of `CCOc1ccc(N2C(=O)C(SCCO)=C(SCCO)C2=O)cc1` [PM-28, 3,4-Bis-(2-hydroxy-ethylsulfanyl)-1-(4-ethoxyphenyl)-pyrrole-2,5-dione], the “Potency at Hep3B cell growth inhibition compared with Cpd5” value in the series with Hep3B cells was “more potent inhibitors than Cpd5”.
Consider `COc1ccc(N2C(=O)C(SCCO)=C(SCCO)C2=O)cc1` [PM-14, 3,4-bisthiolethanol-1-p-methoxyphenyl maleiimide], for which, in the series on Hep3B cells (setting [4]), the negative-log IC50 (pIC50) was 5.22.
On to `O=C1C(SCCO)=C(SCCO)C(=O)N1c1ccc(-c2ccccc2)cc1` [PM-20, N-Biphenyl-4-yl-3,4-bis-(2-hydroxy-ethylsulfanyl)-maleimide], for which the negative-log IC50 (pIC50) in the series on SKBR3 was 5.22; in the series with Hep3B cells (setting [4]), 6.15; in the series on Hep3B cells (setting [5]), 6.15; with PCI, 5.60; with HR it was 5.22; with LS180, < 4.70. The results for the negative logarithm of the IC50 (pIC50) with MCF7, against MKP1 and with FemX were 5.40, 4.12 and 5.60, respectively. In the series on Hep3B cells, the “Potency at Hep3B cell growth inhibition compared with Cpd5” value is recorded as “more potent inhibitors than Cpd5”. Besides, at PYP1B, the “Activity against PYP1B” value is on record as “essentially no activity”. Further, the Cell cycle effect result in the series with cell cycle is listed as “block, mainly in the G1 phase of cell cycle”. On CD45, the “Activity against CD45” value is recorded as “essentially no activity”. In addition, the “Binding to the catalytic domain of Cdc25B” value in [2] is recorded as “binds to the catalytic domain of Cdc25B”. For the same molecule, in [3], the “Concentration needed to inhibit DNA synthesis, normal hepatocytes versus Hep3B” value is 10 fold. Further, in the series with EGFR and ERK1/2, the “Inhibition of de-phosphorylation of ERK 1/2” value is “potent inhibitor”. In addition, the “Tyrosine phosphorylation of EGFR and ERK1/2” value in the series with EGFR and ERK1/2 was “appear to induce tyrosine phosphorylation”. The molecule also displayed a Number of tumors in the series with JM-1 rat hepatoma cells of 2 tumors per rat.
As to `O=C1C(SCCO)=C(SCCO)C(=O)N1c1ccccc1` [PM-I], the negative-log IC50 (pIC50) in the series with Hep3B cells (Hep3B cells, 3 days of treatment, read-out: IC50, Hep3B cell growth inhibition) was 4.52.
Consider `CC(=O)Nc1ccc(N2C(=O)C(SCCO)=C(SCCO)C2=O)cc1` [PM-26, N-{4-[3,4-Bis-(2-hydroxy-ethylsulfanyl)-2,5-dioxo-2,5-dihydro-pyrrol-1-yl]-phenyl}-acetamide], for which the negative logarithm of the IC50 (pIC50) in the series on SKBR3, in the series on Hep3B cells (setting [5]), with PCI, in the series with HR, in the series with LS180 and in the series with MCF7 was < 4.70 in each case. In addition, the negative-log IC50 (pIC50) with FemX was < 4.70. In the series with Hep3B cells, the “Inhibition of Hep3B cell growth” value is given as “did not inhibit”.
